Columns and labels:
[1] = Variation of concentration of vitamin E, Fluralaner in 5 ppm hypochlorite; assay type: physicochemical; settings: used at 1:10.000; for Reduction t = 0 to t = 7 in %: 5 ppm ClO-, 40° C./75% RH
Experimental: While in Example 4.3 alpha-tocopherol was used in the pharmaceutical composition at 8.2% w/w, it was now tested at 80% of that value, namely at 6.6% w/w. Pharmaceutical compositions according to the invention were prepared, containing either 8.2 or 6.6% w/w alpha-tocopherol. Also one base composition was prepared without protector. These were diluted 1:10.000 to prepare medicated drinking waters with 1 μg/ml Fluralaner. Next hypochlorite was added to 5 ppm, and 20 ml samples were filled-out in 50 ml glass vials, sealed with a rubber stopper, and stored for 7 days at 40° C./75% RH. The amount of Fluralaner of the three samples was measured at t=0 and at t=7 days using UHPLC. The concentration of the vitamin E in the final test sample was 1:10,000 of 6.6 or 8.2% w/w.

[2] = Effect of drinking water quality on degradation of Fluralaner; assay type: physicochemical
Experimental: To assess what caused the degradation of Fluralaner in dilution in drinking water, the impact of different types and qualities of drinking water was tested. This was done by incubation of samples containing 1 μg/g of Fluralaner, in water that contained different ions at increased concentrations from average normal conditions. Samples were mixed and incubated for 7 days, either at 2-8° C., or at 40° C./75% relative humidity (RH). Fluralaner contents were measured before and after incubations. Isoxazolines such as Fluralaner can be detected and quantified by fast liquid chromatography methods, using standard equipment and procedures, such as UHPLC. Standard liquids for washing and as carrier are e.g.: LC grade Acetonitrile, Methanol, Formic acid, and MiliQ™ water can be prepared in house. Fluralaner is characterised based on its UV spectrum and retention profile, and quantified in reference to dilutions of standards. LoQ=Limit of Quantitation, the lowest concentration at which the analyte can reliably be detected. For Fluralaner by UHPLC the LoQ is 100 ng/ml.

[3] = Accelerated stability testing of pharmaceutical composition comprising a protector; assay type: physicochemical; settings: with alpha-tocopherol; up to 8 months; 2-8° C., 30° C./65% RH, 40° C./75% RH, 50° C.
Experimental: Similar to the experiments described in Example 3 above, where the effect of water quality on Fluralaner-containing medicated drinking water was tested; here samples of the pharmaceutical composition were tested for an effect of the addition of a protector, on their stability during prolonged storage.
To test the long term stability of the pharmaceutical composition with a protector, some samples were stored under conditions of accelerated ageing. Samples of the pharmaceutical composition with or without one of the protectors, were filled out in portions of 7 gram each, in 10 ml glass vials, sealed with rubber stoppers, and stored under different conditions: 2-8° C.; 30° C./65% RH; 40° C./75% RH, and 50° C. […]

[4] = Tolerance and plasma concentrations of Fluralaner in laying hens (Example 2); assay type: in vivo, chickens
Experimental: No vitamin E was present in the concentrated Fluralaner solution used to prepare the medicated drinking water.
The effectivity of an oral dosing regimen of Fluralaner was tested by administering medicated drinking water (via gavage) to laying hens, in 2 repeated doses of 0.25, 0.5 or 1.0 mg/kg body weight, administered 7 days apart, and challenging them with infestation by Northern fowl mites, via source birds and natural infestation. The birds were kept in separate pens, at 11 birds per pen.

[5] = Vitamin E 0 % w/w in pharm. comp.
[6] = Vitamin E 6.6 % w/w in pharm. comp.
[7] = Vitamin E 8.2 % w/w in pharm. comp.
[8] = 1 μg/g Fluralaner in Al^3+ water at 1 mg/l
[9] = 1 μg/g Fluralaner in ClO^- water at 0.5 ppm
[10] = 1 μg/g Fluralaner in ClO^- water at 5 ppm
[11] = 1 μg/g Fluralaner in ClO^- water at 50 ppm
[12] = 1 μg/g Fluralaner in ClO^- water at 150 ppm
[13] = 1 μg/g Fluralaner in ClO^- water at 250 ppm
[14] = 1 μg/g Fluralaner in Cl^- water at 300 mg/l
[15] = 1 μg/g Fluralaner in Cu^2+ water at 10 mg/l
[16] = 1 μg/g Fluralaner in Fe^3+ water at 1 mg/l
[17] = 1 μg/g Fluralaner in Hard water/high pH (500 mg CaCl2•2H2O/l; pH 8.1)
[18] = 1 μg/g Fluralaner in K^+ water at 300 mg/l
[19] = 1 μg/g Fluralaner in NO3^- water at 100 mg/l
[20] = 1 μg/g Fluralaner in Na^+ water at 300 mg/l
[21] = 1 μg/g Fluralaner in PO4^- water at 100 mg/l
[22] = 1 μg/g Fluralaner in Purified water
[23] = 1 μg/g Fluralaner in Soft water/low pH (30 mg CaCl2•2H2O/l; pH 6.2)
[24] = 1 μg/g Fluralaner in Water at pH = 4
[25] = 1 μg/g Fluralaner in Water at pH = 10

For Cc1cc(C2=NOC(c3cc(Cl)cc(Cl)c3)(C(F)(F)F)C2)ccc1C(=O)NCC(=O)NCC(F)(F)F (stereo not drawn) [Fluralaner], the “Fluralaner conc. after incubation in 5 ppm ClO- at 40° C./75% RH, for t = 0 d” value [1, 5] was 0.80 µg/mL, the “Fluralaner conc. after incubation in 5 ppm ClO- at 40° C./75% RH, for t = 7 d” value [1, 5] was 0.15 µg/mL and the “Reduction t = 0 to t = 7 in %” value [1, 5] was 81%. The “Fluralaner conc. after incubation in 5 ppm ClO- at 40° C./75% RH, for t = 0 d” value [1, 6] was 0.91 µg/mL, the “Fluralaner conc. after incubation in 5 ppm ClO- at 40° C./75% RH, for t = 7 d” value [1, 6] was 0.49 µg/mL and the “Reduction t = 0 to t = 7 in %” value [1, 6] was 46%. For the same compound, the “Fluralaner conc. after incubation in 5 ppm ClO- at 40° C./75% RH, for t = 0 d” value [1, 7] was 0.90 µg/mL, the “Fluralaner conc. after incubation in 5 ppm ClO- at 40° C./75% RH, for t = 7 d” value [1, 7] was 0.49 µg/mL and the “Reduction t = 0 to t = 7 in %” value [1, 7] was 46%. The “Fluralaner content after 7 days at 2-8° C.” value [2, 8] was 0.99 µg/g, the “Fluralaner content after 7 days at 40° C./75% RH” value [2, 8] was 1.01 µg/g and the “Fluralaner content after 7 days at 2-8° C.” value [2, 9] was 0.99 µg/g. For the same compound, the “Fluralaner content after 7 days at 40° C./75% RH” value [2, 9] was 0.82 µg/g, the “Fluralaner content after 7 days at 2-8° C.” value [2, 10] was “<LOQ” and the “Fluralaner content after 7 days at 40° C./75% RH” value [2, 10] was “<LOQ”. For the same compound, the “Fluralaner content after 7 days at 2-8° C.” value [2, 11] was “<LOQ”, the “Fluralaner content after 7 days at 40° C./75% RH” value [2, 11] was “<LOQ” and the “Fluralaner content after 7 days at 2-8° C.” value [2, 12] was “<LOQ”. For the same compound, the “Fluralaner content after 7 days at 40° C./75% RH” value [2, 12] was “<LOQ”, the “Fluralaner content after 7 days at 2-8° C.” value [2, 13] was “Not detected” and the “Fluralaner content after 7 days at 40° C./75% RH” value [2, 13] was “Not detected”. For the same compound, the “Fluralaner content after 7 days at 2-8° C.” value [2, 14] was 0.97 µg/g, the “Fluralaner content after 7 days at 40° C./75% RH” value [2, 14] was 0.98 µg/g and the “Fluralaner content after 7 days at 2-8° C.” value [2, 15] was 0.90 µg/g. The “Fluralaner content after 7 days at 40° C./75% RH” value [2, 15] was 0.78 µg/g, the “Fluralaner content after 7 days at 2-8° C.” value [2, 16] was 0.91 µg/g and the “Fluralaner content after 7 days at 40° C./75% RH” value [2, 16] was 0.89 µg/g. For the same compound, the “Fluralaner content after 7 days at 2-8° C.” value [2, 17] was 0.92 µg/g, the “Fluralaner content after 7 days at 40° C./75% RH” value [2, 17] was 0.96 µg/g and the “Fluralaner content after 7 days at 2-8° C.” value [2, 18] was 0.90 µg/g. The “Fluralaner content after 7 days at 40° C./75% RH” value [2, 18] was 0.80 µg/g, the “Fluralaner content after 7 days at 2-8° C.” value [2, 19] was 0.92 µg/g and the “Fluralaner content after 7 days at 40° C./75% RH” value [2, 19] was 0.93 µg/g. For the same compound, the “Fluralaner content after 7 days at 2-8° C.” value [2, 20] was 0.85 µg/g, the “Fluralaner content after 7 days at 40° C./75% RH” value [2, 20] was 0.84 µg/g and the “Fluralaner content after 7 days at 2-8° C.” value [2, 21] was 1.14 µg/g. For the same compound, the “Fluralaner content after 7 days at 40° C./75% RH” value [2, 21] was 1.15 µg/g, the “Fluralaner content after 7 days at 2-8° C.” value [2, 22] was 0.90 µg/g and the “Fluralaner content after 7 days at 40° C./75% RH” value [2, 22] was 0.92 µg/g. For the same compound, the “Fluralaner content after 7 days at 2-8° C.” value [2, 23] was 0.88 µg/g, the “Fluralaner content after 7 days at 40° C./75% RH” value [2, 23] was 0.89 µg/g and the “Fluralaner content after 7 days at 2-8° C.” value [2, 24] was 1.23 µg/g. For the same compound, the “Fluralaner content after 7 days at 40° C./75% RH” value [2, 24] was 1.26 µg/g, the “Fluralaner content after 7 days at 2-8° C.” value [2, 25] was 0.78 µg/g and the “Fluralaner content after 7 days at 40° C./75% RH” value [2, 25] was 0.79 µg/g. The “Level of Fluralaner in pharmaceutical composition on storage” value [3] was “no significant reduction”, the “Tolerance in the hens” value ([4]; 2 single doses of 0.25, 0.5, or 1 mg/kg BW, 7 days apart, oral) was “well tolerated” and the “Concentrations of Fluralaner in the birds' plasma” value ([4]; doses 0.25, 0.5, 1.0 mg/kg BW twice) was “increased proportionally to the dose administered”.
